Test results published in patent US5667764A, “Compounds, compositions and methods for binding bio-affecting substances to surface membranes of bio-particles” (Zynaxis, Inc., priority 1992, dated 1997).
Like-named read-outs stand apart in the source and are kept apart here. Each block holds one molecule with its values, some of them ahead of it.

Legend:
[1] = In vivo loss of dye from labeled, reinjected erythrocytes; conditions: rabbit, iv
Description: (§2) *Half life for loss of dye from rabbit erythrocytes after labeling and

membrane ghosts = test: Membrane binding stability (MBS) assay in membrane ghosts with 5% albumin; conditions: 24 hours; for MBS (% of max.): Table II; for MBS: Table III
Description: Determination of Membrane Binding Stability
For example, very stable binding to membranes might be required for applications such as delivery of therapeutic radionuclides to tumor sites, as loss of compound could lead to the radionuclide producing its toxic effect at non-tumor sites. On the other hand, more rapid loss of compound from biomembranes may be desirable for application involving controlled delivery rates of therapeutic agents. Accordingly, there is described hereinbelow an assay for determining MBS under conditions approximating those found in vivo.
In carrying out this assay, approximately physiological concentrations of serum albumin (5%) are used. […] To better approximate the effects of large fluid volumes to which labelled cells are exposed in vivo, the assay for MBS is carried out by suspending a decreasing number of labeled membrane ghosts in a fixed volume of albumin-containing saline. At 24 hours, the total amount of label present is determined by sampling the well mixed suspension; subsequently, the membrane ghosts are pelleted by centrifugation and the amount of label released into the supernatant is determined and expressed as a percent of total label. Percent retention is plotted against number of ghosts per ml. of suspension, and MBS is determined as the area under the curve between 5×10^7 ghosts/ml. and 4×10^8 ghosts/ml.

[2] = tested on: red blood cell ghosts (plasma membrane); test: Membrane retention coefficient (MRC) in red blood cell ghosts; format: binding; conditions: 24 hr; Table II
Method: Determination of Membrane Retention Coefficient
The membrane retention coefficient (MRC) provides information regarding how well a given compound is retained in the plasma membrane of a cell and is determined as described below.
Generation of red blood cell ghosts for use as a model membrane is achieved by centrifuging whole blood at 300×g for 15 minutes, removal of the plasma and resuspension of the cell pellet in 0.83% (w/v) ammonium chloride. The ghosts are pelleted from the ammonium chloride by centrifuging at 10,000×g for 10 minutes. This ammonium chloride washing procedure is repeated a minimum of five times to insure that complete release of hemoglobin from the cells has occured. The ghosts are labeled with the compound in question at a concentration allowing for detection of the labeled ghosts by instrumental analysis or fluorescent microscopic methods, and at a concentration similar to those that would be used to label cells for a specific application as described above. For the determinations hereinbelow stock solutions of the compounds in question were prepared in ethanol at a molar concentration of 2×10^-3, and working dilutions of the compounds were prepared in iso-osmotic sucrose (52 g/500 ml distilled water). After incubation of the ghosts at an approximate concentration of 1×10^9 ghosts/ml in the working dilutions of the compounds for 10 minutes, the samples were centrifuged at 10,000×g to pellet the ghosts and the staining solution was aspirated from the samples. The labeled ghosts were resuspended in 1 ml of phosphate buffered saline solution containing 10% fetal bovine serum (PBS-FBS). Triplicate 20 ul aliquots were removed from each sample for the determination of the amount of total compound present. The samples were centrifuged as described above and triplicate 20 ul aliquots were removed from the supernatant for quantitative determination of amount of unbound compound present.
After sampling, the supernatant was aspirated and the red cell ghost pellet was resuspended in 1.0 ml of the PBS-FBS, which was once again sampled as described above. This procedure was repeated at least six times, allowing for detection of rapidly released compounds and was monitored after times equal to or greater than 24 hours to allow for the detection of more slowly released compounds. For the determination of the amount of compound present in each sample, the 20 ul aliquots were extracted into 3.0 ml of n-butanol by shaking. The samples were centrifuged at 3000×g to remove membrane debris and the butanol fractions were assayed for compound concentration. Fluorescent compounds are assayed in this manner using peak excitation and emission wave lengths for the particular compounds being assayed to determine the fluorescence units for each sample.
The determination of the amount of compound present in each sample as described above allows for the calculation of the MRC for each washing or fixed time point. The value is obtained by the following formula: […]
wherein CT represents the amount of compound present (in units determined by the method used to assay the compound) in the total sample and CS represents the amount of compound present in the supernatant sample for that particular time point. The comparison of the MRC values defines criteria for identification of the compounds of this invention, these criteria being: 1) the MRC values determined for each washing steps should have a value of at least about 90 and 2) the percent difference between MRC values over at least a 24 hour time period should be less than about 10%. [drawing 14]
The data provided in Table I below are the results from one experiment and serve as an example of the MRC determination. […]

rabbit erythrocytes = conditions: iv
Description: as §2

[3] = Colchicine plasma concentration in rabbits (estimated); format: in vivo; conditions: rabbit 0.2 mg/kg/day vs human 1 mg/day
Method: (§1) Bochner et al., Handbook of Clinical Pharmacology, Little, Brown and Co., Boston (1983), pp. 151-152. […] Thus, the concentration of colchicine in rabbits shown to prevent restenosis was 14 times the concentration achieved in the clinical trial. The compounds of invention can be prepared in the above-described compatible binding media up to 100 μM, i.e., 1400 times the concentration shown to be effective in the animal study, and delivered directly to the arterial wall by catheter during an angioplasty procedure.

restenosis = conditions: patients; limiting toxicity; cited from earlier work
A10 cells = test: Antiproliferative activity on A10 cells after one 10 minute application; format: cell-based, rat; conditions: for Cell count: 10 minute application; for activity at 10 µM: Rattus norvegicus, read-out: % of Vehicle Maximum
Method: To determine the antiproliferative action of the compounds of invention, in vitro studies were performed using A10 cells, a clonal cell line originally derived from the thoracic aorta of embryonic rats, that proliferate as myoblasts and develop into cells which phenotypically resemble smooth muscle cells (B. Kimes and B. Brandt, Exptl. Cell Res. 98:349 (1976). Typically, twelve-well plates were seeded with 2500-10,000 A10 cells/cm^2 in Dulbecco's Modified Eagles Medium (DMEM) with 10% fetal calf serum (FCS) and allowed to adhere and stabilize for 24 hours at 37° C. Test substances were then prepared in the required concentrations in appropriate cell binding media and, after aspirating the plating medium, applied to the individual wells at 37° C. for a period of only 10 minutes. The treatments were then aspirated, the wells washed 4 times with non-treatment containing medium and then placed in non-treatment containing DMEM with 10% FCS for the duration of the study. At various times after treatment application, triplicate wells were aspirated, the aspirate saved, and the wells treated with 0.25 ml of 0.25% trypsin to release the adherent cells. The enzymatic action of trypsin on the cells was stopped by addition of excess protein (1.75 ml DMEM+10% FCS), the aspirate returned to the wells, and an aliquot of the resultant cell suspension counted in a Coulter Counter (Model ZM with Sampling Stand II). Cell count was normalized to cells per square centimeter of growing area (surface area of well bottom).

[4] = Colchicine blood/plasma level in humans; format: in vivo; conditions: 1 mg/day human; read-out: Peak plasma concentration
Method: as §1

[5] = 1 mg/day human; cited from earlier work

- half-life [1]: 58 days
- MBS (% of max.) (membrane ghosts): 79 ± 3.7 % of max.
Compound: CCCCCCCCCCCCCCCCN1C(=CC=CC2=[N+](CCCCCCCCCCCCCCCC)c3ccccc3C2(C)C)C(C)(C)c2ccccc21 [S]
- MRC# (at 24 hr.) [2]: 87 ± 1.2

- half-life [1]: 36 days
- MBS (% of max.) (membrane ghosts): 55 ± 1.7 % of max.
- MBS (membrane ghosts): 55 ± 1.6%
Compound: CCCCCCCCCCCCCCN1C(=CC=CC2=[N+](CCCCCCCCCCCCCC)c3ccccc3C2(C)C)C(C)(C)c2ccccc21 [R]
- MRC# (at 24 hr.) [2]: 87 ± 0.6

- MBS (% of max.) (membrane ghosts): 19 ± 3.5 % of max.
- In vivo membrane half-life (rabbit erythrocytes): < 1 days
Compound: CCCCCCCCCCCC[N+]1=C(C=CC=C2N(CCCCCCCCCC)c3ccccc3C2(C)C)C(C)(C)c2ccccc21 [Compound 0]
- MRC# (at 24 hr.) [2]: 30 ± 4.7

Compound: COc1cc2c(c(OC)c1OC)-c1ccc(OC)c(=O)cc1[C@@H](NC(C)=O)CC2 [Colchicine, colchicine]
- Colchicine concentration in rabbits vs clinical trial [3]: 14 times
- Maximum tolerated dose (restenosis): ≤ 1 mg/day
- Cell count (A10 cells; 10 μM, day 0): 3006.53 cells per square centimeter
- Cell count (A10 cells; 10 μM, day 1): 3778.07 cells per square centimeter
- Cell count (A10 cells; 10 μM, day 2): 4249.35 cells per square centimeter
- Cell count (A10 cells; 10 μM, day 3): 7785.90 cells per square centimeter
- Cell count (A10 cells; 10 μM, day 6): 57626.63 cells per square centimeter
- Cell count (A10 cells; 10 μM, day 7): 118127.94 cells per square centimeter
- % of Vehicle Maximum (A10 cells; 10 μM, day 0, 0 min): 1.44%
- activity at 10 µM (A10 cells; A10, 24 h, 10 μM, day 1): 1.81%
- activity at 10 µM (A10 cells; A10, 48 h, 10 μM, day 2): 2.04%
- activity at 10 µM (A10 cells; A10, 72 h, 10 μM, day 3): 3.73%
- activity at 10 µM (A10 cells; A10, 144 h, 10 μM, day 6): 27.6%
- activity at 10 µM (A10 cells; A10, 168 h, 10 μM, day 7): 56.6%
- Cell density relative to vehicle-treated cells (A10 cells; day 7): only one-half the cell density of vehicle-treated cells
- Increase in cell number over that with the colchicine conjugate (A10 cells; day 7): approximately 10 fold
- Cmax [4]: 5 nM
- Peak plasma concentration [5]: 2 ng/mL

- MBS (% of max.) (membrane ghosts): 41 ± 5.0 % of max.
- MBS (membrane ghosts): 42 ± 5.7%
- In vivo membrane half-life (rabbit erythrocytes): 10 ± 0.7 days
Compound: CCCCCCCCCCCCCC[N+]1=C(C=CC=C2N(CCC)c3ccccc3C2(C)C)C(C)(C)c2ccccc21 [Q]
- MRC# (at 24 hr.) [2]: 85 ± 0.6

- MBS (% of max.) (membrane ghosts): 48 ± 3.1 % of max.
- In vivo membrane half-life (rabbit erythrocytes): 1.4 days
Compound: CCCCCCCCCCCCCCCCCCCCCC[N+]1=C(C=CC=C2N(CCCCCCCCCCCC)c3ccccc3C2(C)C)C(C)(C)c2ccccc21 [P]
- MRC# (at 24 hr.) [2]: 65 ± 2.0
